Laboratory results as given in the METLIN SMRT retention time set (Domingo-Almenara et al. 2019).

Assay: gradient 5% acetonitrile 3 min, to 50% in 2 min, to 85% in 15 min, held 3 min, 100 µL/min
Settings: column: Zorbax Extend-C18 2.1 x 50 mm; eluents: water / acetonitrile, 0.1% formic acid
Procedure, shortened: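 Pure standards were analyzed in mixtures of ~100 molecules using HPLC coupled to a quadrupole time-of-flight mass spectrometer, in both positive and negative ionization mode. Separation used a Zorbax Extend-C18 column (2.1 × 50 mm, 1.8 μm) at 100 μL/min, with water and acetonitrile each containing 0.1% formic acid. Dead and dwell volumes were 40 μL and 900 μL, and data were collected over 3 months. Retention time was read from computationally picked adduct peaks, each inspected manually.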

For COc1ccc(N2CC(c3nc(-c4ccc(C)cc4)no3)CC2=O)cc1OC (centres undefined), the RP-LC retention time was 866 s.

Work on CC(=O)c1cccc(S(=O)(=O)Nc2ccc(CC(=O)N(C)C)cc2)c1 yielded an RP-LC retention time of 651 s.

Work on COc1ccc(S(=O)Cc2ccc(C(=O)NCCCN3CCCCC3)o2)cc1 (centres undefined) yielded an RP-LC retention time of 587 s.

Compound Cc1ccc(-c2nc(-c3ccc4c(c3)ncn4CCN3CCOCC3)no2)c(C)c1 has an RP-LC retention time of 698 s.

For O=c1n(Cc2cccc(F)c2)nc2c(S(=O)(=O)N3CCCC3)cccn12, the RP-LC retention time was 1050 s.

Work on Cc1nn(C2CCS(=O)(=O)C2)c(C)c1N1CCN(C(=O)C(C)Oc2ccccc2)CC1 (centres undefined) yielded an RP-LC retention time of 731 s.

Compound COC(=O)c1ncn2c1C(=O)N(Cc1ccccc1F)C(C)(C(=O)NC1CCCC1)C2 (centres undefined) has an RP-LC retention time of 737 s.

In the case of COC(=O)c1sccc1NC(=O)Nc1cccn2c(C3CCC3)nnc12, the RP-LC retention time is reported as 884 s.

With Cc1ccc(-n2nc(N3CCCN(C(=O)Nc4cccc(C)c4)CC3)ccc2=O)cc1 the RP-LC retention time was 802 s.

Work on CC(C)C(=O)NC(C)c1nc(-c2ccccc2Cl)no1 (centres undefined) yielded an RP-LC retention time of 834 s.

Compound O=C(C1CCN(c2nnc(-c3ccccc3)o2)CC1)N1CCC2(CC1)OCCO2 has an RP-LC retention time of 701 s.

In the case of CCn1cc(C(=O)NC(C)c2ccc(OC)c(OC)c2)c(=O)c2ccc(C)nc21 (centres undefined), the RP-LC retention time is reported as 885 s.

With O=C(CC1(O)C(=O)Nc2c(Cl)cc(Cl)cc21)c1ccc([N+](=O)[O-])cc1 (centres undefined) the RP-LC retention time was 800 s.

Work on COc1ccc(NS(=O)(=O)c2cn(C(C)C)c3ncccc23)cc1OC yielded an RP-LC retention time of 876 s.

In the case of COc1ccccc1NS(=O)(=O)c1cc2c3c(c1)CCC(=O)N3CCC2, the RP-LC retention time is reported as 799 s.

Compound O=C(Nc1cccn2cnnc12)c1cccc(C(F)(F)F)c1 has an RP-LC retention time of 738 s.

Compound COc1ccc(OC)c(NC(=O)CN2CCN(Cc3ccccc3)C(=O)C2=O)c1 has an RP-LC retention time of 732 s.

COc1cccc(N2CCN(c3ccnc(SCC(=O)Nc4cc(Cl)ccc4OC)n3)CC2)c1 gave an RP-LC retention time of 964 s.

For CCCn1c(C)cnc1C1CN(S(=O)(=O)c2ccc(Cl)c(C)c2)C1, the RP-LC retention time was 732 s.

With Cc1ccc(-c2noc(C3CCCN3C(=O)c3ccccc3F)n2)cc1 (centres undefined) the RP-LC retention time was 1030 s.

In the case of CCCNC(=O)N(Cc1c(C)nn(-c2ccccc2)c1Oc1ccccc1OC)CC1CCCO1 (centres undefined), the RP-LC retention time is reported as 917 s.

CN1C(=O)NC(c2ccc(Cl)cc2)C2=C1CN(c1ccc(C(=O)O)cc1)C2=O (centres undefined) showed an RP-LC retention time of 691 s.

For CC1CCCN(c2nc(=O)n(CC(=O)Nc3ccc4c(c3)OCO4)c3ccccc23)C1 (centres undefined), the RP-LC retention time was 796 s.

With CCN(CC)c1ccc(-c2nc3ncccn3c2NCc2ccccc2)cc1 the RP-LC retention time was 712 s.

With Cc1cc(C)cc(NC(=O)Cc2csc3nc(-c4ccccc4)cn23)c1 the RP-LC retention time was 880 s.

O=C(NCc1ccc(-c2noc(-c3ccc(F)cc3F)n2)s1)C1CC1 gave an RP-LC retention time of 893 s.

Compound COc1cc(NC(=O)C2CCCN(c3ncnc4c3nc3n4CCCCC3)C2)cc(OC)c1OC (centres undefined) has an RP-LC retention time of 720 s.

Compound CCOC(=O)c1c(S(=O)(=O)N2CCC(C(=O)NCc3ccc(C)o3)CC2)c(C)n(C)c1C has an RP-LC retention time of 764 s.

For Cc1nnc(C(C)C)n1C1CC2CCC(C1)N2CC[C@H](NC(=O)C1CCC(F)(F)CC1)c1ccccc1 (some centres undefined), the RP-LC retention time was 674 s.

Compound COc1ccc(N2CC(c3nc(-c4cccc(C(F)(F)F)c4)no3)CC2=O)cc1OC (centres undefined) has an RP-LC retention time of 966 s.

With CCNC(=O)C1(CCO)CCN(c2ncccn2)C1 (centres undefined) the RP-LC retention time was 539 s.

COc1ccc(N2CCN(c3cc(SCC(=O)Nc4ccc(C)c(F)c4)ncn3)CC2)cc1 gave an RP-LC retention time of 1030 s.

Work on COc1cc2c(cc1O)CC1c3c(cc(O)c(OC)c3-2)CCN1C (centres undefined) yielded an RP-LC retention time of 628 s.

CC(=O)Nc1c(C(=O)Nc2ccc(Cl)cc2)nnn1-c1ccccc1 gave an RP-LC retention time of 838 s.

Work on CC(C)(C)NC(=O)c1ccc2c(c1)CCCN2S(C)(=O)=O yielded an RP-LC retention time of 746 s.

For COc1ccc(-c2nnc(-c3ccccc3Cl)o2)cc1S(=O)(=O)N1CCCCCC1, the RP-LC retention time was 1100 s.

For COc1ccccc1OCCC1CCN(S(=O)(=O)Cc2ccccc2F)C1 (centres undefined), the RP-LC retention time was 1030 s.

With Cc1cc(C)nc(Nc2nc(C(=O)NCCOc3ccc(F)cc3)cs2)n1 the RP-LC retention time was 842 s.

With CC1Oc2ccccc2N(CC(=O)NC2CC2)C1=O (centres undefined) the RP-LC retention time was 691 s.

O=C1CC(c2nc3ccccc3n2CCN2CCOCC2)CN1Cc1ccccc1 (centres undefined) showed an RP-LC retention time of 597 s.

With COCC1CN(C2CCC2)CC12CCN(C(=O)c1sccc1C)CC2 (centres undefined) the RP-LC retention time was 597 s.

With CC(NC(=O)Cc1c(F)cccc1Cl)C(=O)N1CCN(c2ccccn2)CC1 (centres undefined) the RP-LC retention time was 599 s.

Work on COc1ccc(-c2ncc(NC(=O)C3CCC3)cn2)cc1 yielded an RP-LC retention time of 848 s.

In the case of O=C1CCC2(CCN1)CCN(S(=O)(=O)c1ccc(Cl)cc1)CC2, the RP-LC retention time is reported as 758 s.

With CCn1c(=O)c(=O)n(CC(=O)NC(C)Cc2ccco2)c2cccnc21 (centres undefined) the RP-LC retention time was 711 s.

Work on CCOC(=O)C1CCN(C(=O)Cn2cnc3nc4c(cc3c2=O)CCCC4)CC1 yielded an RP-LC retention time of 678 s.

Compound COCCNC(=O)Cc1ccc(NS(=O)(=O)c2ccccc2Cl)cc1 has an RP-LC retention time of 676 s.

Cc1cccc(C(=O)N2CCc3cc(CNS(=O)(=O)Cc4ccccc4)ccc32)c1 showed an RP-LC retention time of 972 s.

CCc1cccc(NC(=O)Nc2ccc3nnc(C)n3c2)c1 gave an RP-LC retention time of 730 s.

CC(NC(=O)Cc1ccccc1F)C(=O)Nc1nc2ccccc2[nH]1 (centres undefined) showed an RP-LC retention time of 638 s.

Compound O=C(CCC1CCCC1)Nc1nc(-c2ccc3ccccc3c2)cs1 has an RP-LC retention time of 1340 s.

Compound CC1CCN(c2ccc(-c3noc(CN(C)C4CCCCC4)n3)cn2)CC1 has an RP-LC retention time of 720 s.

Compound Cc1ccc(NC(=O)C2CCN(C(=O)C3Sc4ccccc4NC3=O)CC2)cc1Cl (centres undefined) has an RP-LC retention time of 878 s.

O=C(Nc1ccc(F)c(Cl)c1)C1CCCN(S(=O)(=O)c2c[nH]c(C(=O)N3CCCC3)c2)C1 (centres undefined) showed an RP-LC retention time of 876 s.

In the case of COc1ccc(NC(=O)c2nnn(-c3ccc(C)c(F)c3)c2C)cc1Cl, the RP-LC retention time is reported as 1040 s.

O=S(=O)(c1ccc(Cl)cc1)c1ccc(N2CCN(c3ncccn3)CC2)nn1 gave an RP-LC retention time of 884 s.

In the case of Cc1nc(C)c(C(=O)N/N=C/c2ccc(N(CCCl)CCCl)cc2)s1, the RP-LC retention time is reported as 942 s.

For O=C(NCc1ccc2c(c1)OCO2)NCc1ccc2c(c1)OCO2, the RP-LC retention time was 692 s.

With Cc1ccc(CN2CCC(n3c(C)cnc3-c3cccnc3)C2)s1 (centres undefined) the RP-LC retention time was 546 s.

Cc1ccc(CN2CCC(N3CC(F)(F)C[C@H]3COc3cccnc3)CC2)s1 gave an RP-LC retention time of 587 s.

In the case of O=c1c2ccccc2n(Cc2nc(-c3ccc(C(F)(F)F)cc3)no2)c(=O)n1CC1CCCO1 (centres undefined), the RP-LC retention time is reported as 1100 s.

CCCCN(CC(=O)N1CCNCC1)C(=O)c1ccc(Br)cc1 gave an RP-LC retention time of 589 s.

In the case of O=C(Nc1ccc(S(=O)(=O)N2CCCCC2)cc1)c1cc(-c2ccccc2)on1, the RP-LC retention time is reported as 598 s.

For CCS(=O)(=O)c1nc2ccc(NS(=O)(=O)c3cnc[nH]3)cc2s1, the RP-LC retention time was 652 s.

O=C(NCc1ccc(F)cc1F)c1cn2cc(Cl)ccc2n1 showed an RP-LC retention time of 858 s.

Compound CCOc1ccc(-n2c(CN3CCN(C(=O)NCCC(C)C)CC3)nc3cccnc32)cc1 has an RP-LC retention time of 684 s.

Compound CC(C)c1nnc(-c2coc(S(=O)(=O)N3CCC(N4CCCCC4)CC3)c2)o1 has an RP-LC retention time of 625 s.

In the case of CCc1nc(-c2ccnc(N3CCCC3)c2)no1, the RP-LC retention time is reported as 616 s.

With O=C(C1=CN(c2ccc(F)cc2)c2cc(Cl)ccc2S1(=O)=O)N1CCCC1 the RP-LC retention time was 844 s.

CCn1cc(C)c(C(=O)O)c1CC(=O)N1CCC(c2ccccc2)C1 (centres undefined) showed an RP-LC retention time of 802 s.

COc1cccc(CCC(=O)N2CCc3nc[nH]c3C2)c1 showed an RP-LC retention time of 575 s.

Work on COCCN(CCOC)Cc1c(C)[nH]c2c(C)c(C)ccc2c1=O yielded an RP-LC retention time of 605 s.

O=C(CC(F)(F)F)N1CCC(c2noc(-c3cccnc3)n2)C1 (centres undefined) gave an RP-LC retention time of 643 s.

With Cc1ccccc1CN1CCCN(c2ncccc2-c2nc(C3CC3)no2)CC1 the RP-LC retention time was 711 s.

Cc1ccc(N2CCN(c3nccn4c(=O)n(CC(=O)Nc5ccc(F)c(Cl)c5)nc34)CC2)cc1 gave an RP-LC retention time of 1040 s.

O=C(NCc1nc2ccccc2[nH]1)c1coc(NC(=O)c2cccs2)n1 gave an RP-LC retention time of 556 s.

Work on Cn1cc(-c2ccncc2)cc1C(=O)N1CCN(c2ccc(Cl)cc2)CC1 yielded an RP-LC retention time of 682 s.

Work on COc1ccc(-c2cc3c(=O)n(Cc4noc(CN(C)C5CCCCC5)n4)ccn3n2)cc1 yielded an RP-LC retention time of 671 s.

COC(=O)Nc1ccc(S(=O)(=O)N2CCCC(C(F)(F)F)C2)cc1 (centres undefined) gave an RP-LC retention time of 837 s.

Compound CCc1ccc(S(=O)(=O)N2CCC(c3nc(C(=O)N4CCOCC4)c(C)o3)CC2)cc1 has an RP-LC retention time of 904 s.

Compound CC(C)(Oc1ccc(Cl)cc1)C(=O)Nc1ccc2cn[nH]c2c1 has an RP-LC retention time of 822 s.

For Cc1nc2cccnc2n1CCN1CCN(C(=O)Nc2cccc(Cl)c2)CC1, the RP-LC retention time was 604 s.

For COc1cc(-c2nc3ccccn3c2Nc2ccccc2C)ccc1O, the RP-LC retention time was 650 s.

With COc1ccc(-n2c(=O)n(C)c(=O)c3cc(C(=O)NCc4ccncc4)cnc32)cc1 the RP-LC retention time was 596 s.

Compound CCSc1nc(NCC(C)C)c2cnn(CCNC(=O)c3cn(C)nc3OC)c2n1 has an RP-LC retention time of 749 s.

For O=C(CN1C(=O)c2cccnc2Oc2ccccc21)NCCc1c[nH]c2ccccc12, the RP-LC retention time was 766 s.

Compound Cc1ccc(NC(=O)Nc2cccc(-c3ccc(N4CCOCC4)nn3)c2)cc1F has an RP-LC retention time of 739 s.

Work on O=C(CSc1ccc(-n2cccn2)nn1)NCc1cccs1 yielded an RP-LC retention time of 681 s.

In the case of CCOc1ccc(-n2c(CN3CCN(C(=O)NC(C)CC)CC3)nc3cccnc32)cc1 (centres undefined), the RP-LC retention time is reported as 650 s.
